The record followed here is ChEMBL document CHEMBL5346938, “Bis-chalcones: A review of synthetic methodologies and anti-inflammatory effects” (Eur J Med Chem, 2023).

The target in assay [1] is T1, Seed linoleate 13S-lipoxygenase-1 (Glycine max) (UniProt P08170).
T1 sequence (whole entry): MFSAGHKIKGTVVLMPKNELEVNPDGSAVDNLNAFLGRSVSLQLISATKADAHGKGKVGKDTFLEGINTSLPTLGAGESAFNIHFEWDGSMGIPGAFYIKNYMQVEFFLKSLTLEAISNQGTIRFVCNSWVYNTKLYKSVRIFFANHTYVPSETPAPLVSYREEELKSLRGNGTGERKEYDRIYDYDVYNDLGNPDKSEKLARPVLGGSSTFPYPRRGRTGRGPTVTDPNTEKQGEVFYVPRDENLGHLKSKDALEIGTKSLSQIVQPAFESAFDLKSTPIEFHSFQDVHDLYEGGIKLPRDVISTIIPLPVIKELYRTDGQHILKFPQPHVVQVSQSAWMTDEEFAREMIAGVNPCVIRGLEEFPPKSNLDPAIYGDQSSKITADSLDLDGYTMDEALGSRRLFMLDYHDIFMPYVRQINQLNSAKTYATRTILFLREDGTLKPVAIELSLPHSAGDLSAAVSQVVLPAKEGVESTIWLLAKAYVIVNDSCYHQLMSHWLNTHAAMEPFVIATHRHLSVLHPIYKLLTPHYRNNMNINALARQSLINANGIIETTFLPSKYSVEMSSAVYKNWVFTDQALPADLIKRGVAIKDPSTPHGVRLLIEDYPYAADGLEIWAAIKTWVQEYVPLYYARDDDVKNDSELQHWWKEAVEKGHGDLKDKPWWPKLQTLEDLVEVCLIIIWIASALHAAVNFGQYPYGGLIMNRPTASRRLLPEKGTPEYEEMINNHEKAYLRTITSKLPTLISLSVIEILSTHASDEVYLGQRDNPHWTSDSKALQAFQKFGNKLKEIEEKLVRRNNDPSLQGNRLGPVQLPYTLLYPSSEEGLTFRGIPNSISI
The experiment in a line: Inhibition of soybean LOX-1 using linoleic acid as substrate at 100 uM relative to control.

Assay [2] deals with Rattus norvegicus. In words: Anti-inflammatory activity against carrageenan-induced paw edema in Sprague-Dawley rat assessed as inhibition of paw edema at 10 mg/kg, ip measured after 3 hrs relative to control. It counts as functional. Set-up: scale not given: the % may be the effect or the level left. For orientation: Carrageenan injected into the paw causes an acute inflammation.

Assay [3] relates to Rattus norvegicus. The experiment in a line: Anti-inflammatory activity against carrageenan-induced paw edema in Sprague-Dawley rat assessed as reduction in edema measured after 3 hrs relative to indomethacin. The class given is functional. Also on record: concentration or dose not given beside the values.
The subject of assay [4] is Rattus norvegicus. The experiment in a line: Anti-inflammatory activity against carrageenan-induced paw edema in Sprague-Dawley rat assessed as inhibition of paw edema at 10 mg/kg, ip measured after 6 hrs relative to control. Set-up: scale not given: the % may be the effect or the level left. The class given is functional.
Assay [5] deals with Rattus norvegicus. In words: Anti-inflammatory activity against carrageenan-induced paw edema in Sprague-Dawley rat assessed as reduction in edema measured after 6 hrs relative to indomethacin. It counts as functional. Also on record: concentration or dose not given beside the values.
Assay [6] relates to Rattus norvegicus. In words: Anti-inflammatory activity against Carrageenan-induced paw edema in rat assessed as reduction in edema measured after 6 hrs relative to control. Also on record: concentration or dose not given beside the values. The class given is functional.
The target of assay [7] is COX-1/COX-2 (Homo sapiens) (UniProt P35354+P23219). The experiment in a line: Selectivity index, ratio of IC50 for COX-1 (unknown origin) to IC50 for COX-2 (unknown origin). It counts as protein assay.
Assay [8] deals with T2, Prostaglandin G/H synthase 2 (Homo sapiens, UniProt P35354).
T2 sequence (P35354 whole entry): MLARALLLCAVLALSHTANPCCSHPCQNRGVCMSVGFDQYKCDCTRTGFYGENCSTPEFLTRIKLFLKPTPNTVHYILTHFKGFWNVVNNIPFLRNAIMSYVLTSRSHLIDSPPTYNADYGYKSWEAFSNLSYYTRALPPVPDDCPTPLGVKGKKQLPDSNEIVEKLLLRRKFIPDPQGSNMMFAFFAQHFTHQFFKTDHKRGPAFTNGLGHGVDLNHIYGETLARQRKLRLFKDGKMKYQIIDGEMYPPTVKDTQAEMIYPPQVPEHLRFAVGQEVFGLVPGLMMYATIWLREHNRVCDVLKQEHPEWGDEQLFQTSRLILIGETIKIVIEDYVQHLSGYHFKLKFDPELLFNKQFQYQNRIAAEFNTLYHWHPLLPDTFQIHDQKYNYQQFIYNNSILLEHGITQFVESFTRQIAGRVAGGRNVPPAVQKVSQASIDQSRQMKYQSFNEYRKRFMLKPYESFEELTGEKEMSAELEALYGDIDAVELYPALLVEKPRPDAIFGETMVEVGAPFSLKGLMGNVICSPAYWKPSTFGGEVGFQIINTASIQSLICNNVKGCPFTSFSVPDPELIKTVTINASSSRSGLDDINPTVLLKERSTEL
In words: Inhibition of COX-2 (unknown origin).

Assay [9] has as its target T3, Seed linoleate 13S-lipoxygenase-1 (Glycine max, UniProt P08170).
T3 sequence (P08170 whole entry): T1 sequence (whole entry)
The experiment in a line: Inhibition of soybean LOX-1 using linoleic acid as substrate.

COX-1/COX-2 (Homo sapiens), sequence (P23219 whole entry, looked up, one chain of several): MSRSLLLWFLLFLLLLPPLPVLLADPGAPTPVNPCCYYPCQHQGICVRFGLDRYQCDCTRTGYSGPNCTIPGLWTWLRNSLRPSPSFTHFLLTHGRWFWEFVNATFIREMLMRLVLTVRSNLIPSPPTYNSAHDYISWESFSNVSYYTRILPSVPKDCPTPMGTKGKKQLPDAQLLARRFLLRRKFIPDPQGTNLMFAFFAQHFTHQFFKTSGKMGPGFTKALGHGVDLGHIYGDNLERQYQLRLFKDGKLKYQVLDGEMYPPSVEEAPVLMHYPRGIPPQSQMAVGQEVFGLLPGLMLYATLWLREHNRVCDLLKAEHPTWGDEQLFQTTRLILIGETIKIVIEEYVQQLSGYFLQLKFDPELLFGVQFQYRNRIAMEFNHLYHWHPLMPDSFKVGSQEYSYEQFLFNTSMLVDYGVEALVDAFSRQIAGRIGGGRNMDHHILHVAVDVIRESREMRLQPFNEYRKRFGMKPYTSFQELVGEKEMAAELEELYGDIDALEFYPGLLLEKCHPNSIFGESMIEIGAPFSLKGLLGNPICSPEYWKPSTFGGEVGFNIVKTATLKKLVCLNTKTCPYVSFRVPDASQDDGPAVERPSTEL

On to `O=C(/C=C/c1ccccc1)c1ccc(OCCCOc2ccc(C(=O)/C=C/c3ccccc3)cc2)cc1`, for which the inhibition (as a rule, the percentage by which the read-out fell short of the control) in assay [1] was determined as 76%. Still for that read-out and setting: then `O=C(/C=C/c1ccco1)c1ccc(OCCCOc2ccc(C(=O)/C=C/c3ccco3)cc2)cc1`, with 57%. Turning to `Cc1c(C(=O)/C=C/c2ccco2)c(C(=O)/C=C/c2ccco2)nn1-c1ccccc1`, the Activity worked out at 28.15% in the assay on Rattus norvegicus [2], 61.45% with Rattus norvegicus [3], 28.61% in the assay with Rattus norvegicus [4] and 58.6% in the assay with Rattus norvegicus [5]. The like results for `Cc1ccc(-n2nc(C(=O)/C=C/c3ccco3)c(C(=O)/C=C/c3ccco3)c2C)cc1` were, in that order, 9.69%, 21.14%, 11.33% and 23.2%. The compound `CN(C)c1ccc(/C=C/C=C/C(=O)c2ccc(OCCCCCCOc3ccc(C(=O)/C=C/C=C/c4ccc(N(C)C)cc4)cc3)cc2)cc1` gave an inhibition in assay [1] of 7%.

In the case of `Cc1ccc(-n2nc(C(=O)/C=C/c3ccc(Cl)cc3Cl)c(C(=O)/C=C/c3ccc(Cl)cc3Cl)c2C)cc1`, in the assay on Rattus norvegicus [6], the Activity was found to be 10.71%. Consider `Cc1c(C(=O)/C=C/c2ccco2)c(C(=O)/C=C/c2ccco2)nn1-c1ccc(Cl)cc1`, for which the Ratio IC50 in [7] was determined as 65.3. Moreover, the Activity with Rattus norvegicus [6] was determined as 27.86%. Besides, the half-inhibitory concentration (IC50) (usually the concentration at which inhibition is half-maximal) in [8] turned out to be 1500 nM. As to `Cc1c(C(=O)/C=C/c2ccco2)c(C(=O)/C=C/c2ccco2)nn1-c1ccc(Br)cc1`, the Activity in the assay with Rattus norvegicus [6] was determined as 1.07%.

Turning to `Cc1c(C(=O)/C=C/c2ccc(Cl)cc2)c(C(=O)/C=C/c2ccc(Cl)cc2)nn1-c1ccccc1`, the Activity in the assay on Rattus norvegicus [2] came out at 24.37%; in the assay with Rattus norvegicus [3] it was 53.2%; in the assay with Rattus norvegicus [4], 28.31%; in the assay on Rattus norvegicus [5], 57.97%. In turn, `O=C(/C=C/c1cccc2ccccc12)c1ccc(OCCCOc2ccc(C(=O)/C=C/c3cccc4ccccc34)cc2)cc1` gave an inhibition in assay [1] of 100%. Further, the 50% inhibitory concentration (IC50) in [9] was 55000 nM. Turning to `Cc1ccc(-n2nc(C(=O)/C=C/c3ccc(Cl)cc3)c(C(=O)/C=C/c3ccc(Cl)cc3)c2C)cc1`, the Activity in the assay with Rattus norvegicus [2] amounted to 21.23%; in the assay on Rattus norvegicus [3], 59.87%; in the assay with Rattus norvegicus [4], 25.92%; with Rattus norvegicus [5] it was 53.08%. For the compound `Cc1c(C(=O)/C=C/c2ccc(Cl)cc2Cl)c(C(=O)/C=C/c2ccc(Cl)cc2Cl)nn1-c1ccc(F)cc1`, the Activity in the assay with Rattus norvegicus [6] was 13.57%.

In turn, `O=C(/C=C/c1ccc(Oc2ccccc2)cc1)c1ccc(OCCCOc2ccc(C(=O)/C=C/c3ccc(Oc4ccccc4)cc3)cc2)cc1` gave an inhibition in assay [1] of 100%. The compound further displayed a 50% inhibitory concentration (IC50) in assay [9] of 55000 nM. For the compound `CN(C)c1ccc(/C=C/C=C/C(=O)c2ccc(OCCCCCOc3ccc(C(=O)/C=C/C=C/c4ccc(N(C)C)cc4)cc3)cc2)cc1`, in [1], the inhibition was found to be 23%. Still for that read-out and setting: then `O=C(/C=C/c1cccs1)c1ccc(OCCCOc2ccc(C(=O)/C=C/c3cccs3)cc2)cc1`, with 32%.

Take `COc1ccc(/C=C/C(=O)c2nn(-c3ccc(C)cc3)c(C)c2C(=O)/C=C/c2ccc(OC)cc2)cc1`: the Activity worked out at 27.43% with Rattus norvegicus [2], 59.87% in the assay with Rattus norvegicus [3], 21.38% with Rattus norvegicus [4] and 43.78% in the assay on Rattus norvegicus [5]. In assay [1], `O=C(/C=C/c1ccc(OCc2ccc(Br)cc2)cc1)c1ccc(OCCCOc2ccc(C(=O)/C=C/c3ccc(OCc4ccc(Br)cc4)cc3)cc2)cc1` came in with an inhibition of 41%. Regarding `Cc1c(C(=O)/C=C/c2ccc(Cl)cc2Cl)c(C(=O)/C=C/c2ccc(Cl)cc2Cl)nn1-c1ccc(Cl)cc1`, the Activity with Rattus norvegicus [6] is listed as 15.36%. Take `O=C(/C=C/C=C/c1ccccc1)c1ccc(OCCCOc2ccc(C(=O)/C=C/C=C/c3ccccc3)cc2)cc1`: in assay [1], the inhibition was found to be 41%.

`O=C(/C=C/C(Br)=C/c1ccccc1)c1ccc(OCCCOc2ccc(C(=O)/C=C/C(Br)=C/c3ccccc3)cc2)cc1` returned an inhibition in assay [1] of 24.5%. In assay [1], `Cc1ccc(/C=C/C(=O)c2ccc(OCCCOc3ccc(C(=O)/C=C/c4ccc(C)o4)cc3)cc2)o1` gave an inhibition of 52%. Regarding `COc1ccc(/C=C/C(=O)c2nn(-c3ccc(F)cc3)c(C)c2C(=O)/C=C/c2ccc(OC)cc2)cc1`, the Ratio IC50 in [7] amounted to 312. The Activity in the assay with Rattus norvegicus [6] came to 65.21%. In addition, in assay [8], inhibition was half-maximal at 320 nM (IC50). With `Cc1c(C(=O)/C=C/c2ccc(Cl)cc2Cl)c(C(=O)/C=C/c2ccc(Cl)cc2Cl)nn1-c1ccccc1`, the Activity in the assay with Rattus norvegicus [6] stood at 12.86%. On to `COc1ccc(/C=C/C(=O)c2nn(-c3ccc(Cl)cc3)c(C)c2C(=O)/C=C/c2ccc(OC)cc2)cc1`, for which the Ratio IC50 in assay [7] worked out at 333. In addition, the Activity in the assay on Rattus norvegicus [6] turned out to be 66.21%. Further, in [8], the IC50 stood at 300 nM. Take `COc1ccc(/C=C/C(=O)c2nn(-c3ccc(Br)cc3)c(C)c2C(=O)/C=C/c2ccc(OC)cc2)cc1`: the Ratio IC50 in assay [7] is 76. In addition, 700 nM corresponded to half-maximal inhibition in [8] (IC50). In the case of `Cc1c(C(=O)/C=C/c2ccc(Cl)cc2Cl)c(C(=O)/C=C/c2ccc(Cl)cc2Cl)nn1-c1ccc(Br)cc1`, the Activity in the assay on Rattus norvegicus [6] was found to be 9.26%.

On to `O=C(/C=C/C=C/c1ccc([N+](=O)[O-])cc1)c1ccc(OCCCOc2ccc(C(=O)/C=C/C=C/c3ccc([N+](=O)[O-])cc3)cc2)cc1`, for which, in [1], the inhibition came out at 95%. In the case of `CN(C)c1ccc(/C=C/C=C/C(=O)c2ccc(OCCCOc3ccc(C(=O)/C=C/C=C/c4ccc(N(C)C)cc4)cc3)cc2)cc1`, in assay [1], the inhibition came out at 93%. The IC50 in assay [9] was 56000 nM.

On to `Cc1c(C(=O)/C=C/c2ccco2)c(C(=O)/C=C/c2ccco2)nn1-c1ccc(F)cc1`, for which the Activity with Rattus norvegicus [6] stood at 16.79%. For the compound `CN(C)c1ccc(/C=C/C=C/C(=O)c2ccc(OCCCCOc3ccc(C(=O)/C=C/C=C/c4ccc(N(C)C)cc4)cc3)cc2)cc1`, in assay [1], the inhibition worked out at 27%. The same measure, in the same setting: under `O=C(/C=C/c1c[nH]c2ccccc12)c1ccc(OCCCOc2ccc(C(=O)/C=C/c3c[nH]c4ccccc34)cc2)cc1` stands 98%. Still for that read-out and setting: then `CN(C)c1ccc(/C=C/C=C/C(=O)c2ccc(OCCCCCCCCOc3ccc(C(=O)/C=C/C=C/c4ccc(N(C)C)cc4)cc3)cc2)cc1`, with 12%.

Take `Cc1c(C(=O)/C=C/c2ccccc2)c(C(=O)/C=C/c2ccccc2)nn1-c1ccccc1`: the Activity in the assay on Rattus norvegicus [2] turned out to be 32.58%; with Rattus norvegicus [3], 77.66%; in the assay on Rattus norvegicus [4], 38.9%; with Rattus norvegicus [5] it was 79.67%. On to `CC(/C=C/C(=O)c1ccc(OCCCOc2ccc(C(=O)/C=C/C(C)=C/c3ccccc3)cc2)cc1)=C\c1ccccc1`, for which the inhibition in [1] came to 26.5%. Still for that read-out and setting: then `CN(C)c1ccc(/C=C/C=C/C(=O)c2ccc(OCCOc3ccc(C(=O)/C=C/C=C/c4ccc(N(C)C)cc4)cc3)cc2)cc1`, with 77%. For `COc1ccc(/C=C/C(=O)c2nn(-c3ccccc3)c(C)c2C(=O)/C=C/c2ccc(OC)cc2)cc1`, the Activity with Rattus norvegicus [2] amounted to 32.69%; in the assay on Rattus norvegicus [3], 71.35%; in the assay with Rattus norvegicus [4] it was 35.92%; in the assay with Rattus norvegicus [5], 73.56%. Take `Cc1ccc(-n2nc(C(=O)/C=C/c3ccccc3)c(C(=O)/C=C/c3ccccc3)c2C)cc1`: the Activity in the assay with Rattus norvegicus [2] is recorded as 28.72%; with Rattus norvegicus [3] it was 62.69%; in the assay with Rattus norvegicus [4], 30.16%; in the assay with Rattus norvegicus [5] it was 61.76%. `CN(C)c1ccc(/C=C/C=C/C(=O)c2ccc(OCCCCCCCOc3ccc(C(=O)/C=C/C=C/c4ccc(N(C)C)cc4)cc3)cc2)cc1`: the inhibition in assay [1] amounted to 65%.
